Literature values in patent publication US7923465B2, “Cannabinoid receptor ligands, pharmaceutical compositions containing them, and process for their preparation” (priority 2005, dated 2011).
Like-named read-outs stand apart in the source and are kept apart here.

Key:
voluntary ethanol intake [1] = conditions: rats; cited from earlier work
voluntary ethanol intake [2] = conditions: mice; cited from earlier work

## Cc1c(C(=O)NN2CCCCC2)nn(-c2ccc(Cl)cc2Cl)c1-c1ccc(Cl)cc1 [SR-141716A, 5-(4-chlorophenyl)-1-(2,4-dichlorophenyl)-4-methyl-N-(1-piperidyl)pyrazole-3-carboxamide]
Voluntary ethanol intake [1]
  voluntary ethanol intake: block voluntary ethanol intake
Voluntary ethanol intake [2]
  voluntary ethanol intake: block voluntary ethanol intake
